Measurements taken from patent US20150158891A1, “STABLE PHARMACEUTICAL COMPOSITION FOR OPTIMIZED DELIVERY OF AN HIV ATTACHMENT INHIBITOR” (Bristol-Myers Squibb Company, priority 2008, published 2015).

Tested on: Porcine alkaline phosphatase
Test: Conversion of prodrug to parent compound by alkaline phosphatase in pH 7.0 Tris-HCl buffer solution
Type: in vitro ADME
Experimental: Phosphate ester prodrug was dissolved in pH 7.0 Tris-HCl buffer to a concentration of 0.72 mg/mL. Porcine alkaline phosphatase (1 mg/mL) was added to an aliquot of the solution. 2.5 hours after enzyme addition a sample was analyzed. The results in the Table below confirm that alkaline phosphatase is active in pH 7.0 Tris-HCl buffer and rapidly hydrolyzes the phosphate ester prodrug to the parent compound.

SMILES: COc1cnc(-n2cnc(C)n2)c2c1c(C(=O)C(=O)N1CCN(C(=O)c3ccccc3)CC1)cn2COP(=O)(O)O [Prodrug, 1-benzoyl-4-[2-[4-methoxy-7-(3-methyl-1H-1,2,4-triazol-1-yl)-1-[(phosphonooxy)methyl]-1H-pyrrolo[2,3-c]pyridin-3-yl]-1,2-dioxoethyl]-piperazine]
- Prodrug peak area (2.5 hr sample of solution containing enzyme (1 mg/mL)): 0.0%
- Prodrug peak area (initial sample of prodrug solution (no enzyme), 0.72 mg/mL, percent of total prodrug+parent peak area): 99.9%
